Measurements taken from patent US20220282217A1, “COMPOSITIONS AND METHODS FOR PREPARING T CELL COMPOSITIONS AND USES THEREOF” (priority 2019, published 2022).
Where two headings read alike, the source gives them in different places. Where a SMILES comes first, the peptide text is derived from it.

What was measured:
HLA-A11.01 [1] = target: T1, HLA-A11.01 (Homo sapiens, UniProt P04439, A114D/F33Y/S129P); experiment: Class I MHC peptide binding stability (pMHC-I dissociation, 125I-labeled light chain); details: HLA Allele A11.01; time for half of the complexes to dissociate at 37° C.
T1 construct: made in house; host or cells: E. coli

HLA-A03.01 [2] = target: T2, HLA-A03.01 (Homo sapiens, UniProt P04439); experiment: as above; parameters: made in house; host or cells: E. coli; details: for Measured stability: HLA Allele A03.01, time for half of the complexes to dissociate at 37° C.; for Stability (T1/2 (h)): allele A03.01
HLA-A02.01 [3] = target: T3, HLA-A02.01 (Homo sapiens, UniProt P04439, D140Y/D185E/D98H/E176V/E277Q/G131W/G231S/I119V/I121R/I166T/I218V/N151K/N90K/P208A/P217A/Q86G/Q94H/R138H/R169H); experiment: as above; details: allele A02.01
T3 construct: made in house; host or cells: E. coli

HLA-B08.01 [4] = target: T4, HLA-B08.01 (Homo sapiens, UniProt P01889, A93T/A95T/D138N/E176V/E187T/K202T/Q94N/R180D/S35A/V36M/Y33D/Y91F); experiment: as above; details: Allele B08.01
HLA-A02.01 [5] = target: HLA-A02.01 (Homo sapiens, UniProt P04439, D140Y/D185E/D98H/E176V/E277Q/G131W/G231S/I119V/I121R/I166T/I218V/L300P/L318F/N151K/N90K/P208A/P217A/Q86G/Q94H/R138H/R169H/T345S); experiment: Class I MHC peptide binding affinity (displacement of radiolabeled reference peptide); details: (nM)), allele A02.01
In short: (§1)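 Displacement format in which varying amounts of peptide compete for 2 days with a radiolabeled reference ligand prebound to class I MHC, residual complex-associated label being measured after gel-filtration separation.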

HLA-B08.01 [6] = target: T4, HLA-B08.01; experiment: as above
In short: as §1

HLA-B07.02 [7] = target: T5, HLA-B07.02 (Homo sapiens, UniProt P01889); experiment: as above
HLA-A03.01 [8] = target: T2, HLA-A03.01; experiment: as above; details: allele A03.01, (nM))
[9] = test system: 293T cells transduced with GATA3 neoORF, expressing the HLA of interest; experiment: Presentation of GATA3 neoantigens: HLA-eluted peptides by targeted MS/MS (PRM) (Table 14); format: cell-based, human
Experimental: To assess whether antigens could be processed and presented from the larger polypeptide context, peptides eluted from HLA molecules isolated from cells expressing the genes of interest were analyzed by tandem mass spectrometry (MS/MS).
Between 50 and 700 million of the transduced cells expressing peptides encoded by the GATA3 neoORF sequence were cultured and peptides were eluted from HLA-peptide complexes using an acid wash. Eluted peptides were then analyzed by targeted MS/MS using PRM. Spectral comparison between peptides derived from GATA3 neoORF and corresponding synthetic peptides were performed to confirm each detection.

HLA-A11.01 [10] = target: HLA-A11.01 (Homo sapiens, UniProt P04439, A114D/D185E/E176A/F33Y/L180Q/S129P/T187R); experiment: Class I MHC peptide binding affinity (displacement of radiolabeled reference peptide)
HLA-B07.02 [11] = target: T5, HLA-B07.02; experiment: Class I MHC peptide binding stability (pMHC-I dissociation, 125I-labeled light chain); parameters: made in house; host or cells: E. coli; details: Allele B07.02
[12] = read-out: Observed Affinity (IC50
[13] = GATA3 neoORF transduced 293T cells expressing HLA-A*02:01 protein
[14] = allele A11.01, read-out: Observed Affinity (IC50, (nM))

CC(C)[C@H](N)C(=O)N[C@H](C(=O)N[C@H](C(=O)NCC(=O)N[C@@H](C)C(=O)N[C@@H](CC(=O)O)C(=O)NCC(=O)N[C@H](C(=O)NCC(=O)N[C@@H](CCCCN)C(=O)O)C(C)C)C(C)C)C(C)C
Measured stability (HLA-A11.01 [1]): 13.0 h
Measured stability (HLA-A03.01 [2]): 2.3 h

CC[C@H](C)[C@H](NC(=O)[C@H](CCCCN)NC(=O)[C@H](CO)NC(=O)[C@H](CCC(=O)O)NC(=O)[C@H](C)NC(=O)[C@H](CCCCN)NC(=O)[C@H](CC(C)C)NC(=O)[C@H](Cc1ccccc1)NC(=O)[C@H](CCSC)NC(=O)[C@@H](N)Cc1ccc(O)cc1)C(=O)O
Stability (T1/2 (h)) (HLA-A02.01 [3]): 0.6 h
Stability (T1/2 (h)) (HLA-B08.01 [4]): 0.4 h

CC[C@H](C)[C@H](NC(=O)[C@H](Cc1ccc(O)cc1)NC(=O)[C@H](CCCCN)NC(=O)CNC(=O)[C@H](CCCNC(=N)N)NC(=O)[C@H](CCCCN)NC(=O)[C@H](Cc1c[nH]cn1)NC(=O)[C@H](CC(C)C)NC(=O)[C@@H](N)Cc1c[nH]c2ccccc12)C(=O)O (H-WLHKRGKYI-OH; N-terminus and C-terminus assumed)
IC50 (HLA-A02.01 [5]; Observed Affinity (IC50): 1250 nM
IC50 (HLA-B08.01 [6]): 417 nM
IC50 (HLA-B07.02 [7]): 2650 nM
Stability (T1/2 (h)) (HLA-A02.01 [3]): 1.2 h
Stability (T1/2 (h)) (HLA-B08.01 [4]): 1.3 h

CSCC[C@H](NC(=O)[C@@H](NC(=O)[C@H](Cc1ccc(O)cc1)NC(=O)[C@H](C)NC(=O)[C@H](CCSC)NC(=O)[C@@H](NC(=O)[C@@H](N)Cc1ccc(O)cc1)C(C)C)C(C)C)C(=O)N[C@@H](C)C(=O)NCC(=O)O
IC50 (HLA-A02.01 [5]; [12]): 11500 nM
Stability (T1/2 (h)) (HLA-A02.01 [3]): 2.5 h
Stability (T1/2 (h)) (HLA-B08.01 [4]): 1.2 h

CC(C)[C@H](NC(=O)[C@@H](N)CCCCN)C(=O)N[C@@H](CO)C(=O)N[C@@H](CCCNC(=N)N)C(=O)N[C@@H](CCC(=O)O)C(=O)N[C@@H](CC(N)=O)C(=O)N[C@H](C(=O)N[C@@H](CO)C(=O)N1CCC[C@H]1C(=O)N[C@@H](CCCCN)C(=O)O)[C@@H](C)O (H-KVSRENTSPK-OH; N-terminus and C-terminus assumed)
IC50 (HLA-A03.01 [8]; [12]): 7 nM
Stability (T1/2 (h)) (HLA-A03.01 [2]): 13.5 h

CC(C)C[C@H](NC(=O)[C@H](C)NC(=O)[C@H](CC(C)C)NC(=O)[C@H](Cc1c[nH]cn1)NC(=O)[C@@H]1CCCN1C(=O)[C@H](CCC(=O)O)NC(=O)[C@@H]1CCCN1C(=O)[C@H](CC(C)C)NC(=O)[C@@H](N)C(C)C)C(=O)O [VLPEPHLAL] (H-VLPEPHLAL-OH; N-terminus and C-terminus assumed)
detected by mass spectrometry (peptide eluted from HLA-peptide complexes) [9, 13]: detected

CC(C)C[C@H](NC(=O)[C@H](C)NC(=O)[C@@H]1CCCN1C(=O)[C@@H](NC(=O)[C@H](CCCCN)NC(=O)[C@H](CCCCN)NC(=O)[C@H](CC(C)C)NC(=O)[C@@H](N)CO)C(C)C)C(=O)N[C@@H](CCCCN)C(=O)O (H-SLKKVPALK-OH; N-terminus and C-terminus assumed)
IC50 (HLA-A03.01 [8]; [12]): 4.4 nM
IC50 (HLA-A11.01 [10]; [14]): 129 nM

CC(C)C[C@H](NC(=O)[C@H](Cc1ccccc1)NC(=O)[C@H](CO)NC(=O)[C@H](CC(C)C)NC(=O)[C@H](CS)NC(=O)[C@H](CO)NC(=O)[C@H](Cc1ccccc1)NC(=O)[C@H](CC(C)C)NC(=O)[C@@H](N)CCCCN)C(=O)O (H-KLFSCLSFL-OH; N-terminus and C-terminus assumed)
IC50 (HLA-A02.01 [5]; [12]): 6 nM
IC50 (HLA-A03.01 [8]; [12]): 308 nM
Stability (T1/2 (h)) (HLA-A02.01 [3]): 14.3 h
Stability (T1/2 (h)) (HLA-A03.01 [2]): 0.8 h

CSCC[C@H](NC(=O)[C@H](C)NC(=O)[C@@H](N)CO)C(=O)N[C@H](C(=O)N[C@H](C(=O)N[C@@H](CO)C(=O)N[C@@H](CO)C(=O)N[C@@H](CO)C(=O)N[C@@H](CCC(N)=O)C(=O)N[C@@H](CCCCN)C(=O)O)[C@@H](C)O)[C@@H](C)O (H-SAMTTSSSQK-OH; N-terminus and C-terminus assumed)
IC50 (HLA-A03.01 [8]; [12]): 15.7 nM
IC50 (HLA-A11.01 [10]; [14]): 15.8 nM

CSCC[C@H](NC(=O)[C@@H](N)CO)C(=O)N[C@@H](CC(C)C)C(=O)N[C@H](C(=O)NCC(=O)N1CCC[C@H]1C(=O)N1CCC[C@H]1C(=O)N[C@@H](C)C(=O)N[C@@H](CCCNC(=N)N)C(=O)N[C@H](C(=O)O)C(C)C)[C@@H](C)O
Stability (T1/2 (h)) (HLA-A02.01 [3]): 21.7 h
detected by mass spectrometry (peptide eluted from HLA-peptide complexes) [9, 13]: detected

CSCC[C@H](NC(=O)[C@H](Cc1c[nH]c2ccccc12)NC(=O)[C@H](Cc1c[nH]cn1)NC(=O)[C@H](CC(N)=O)NC(=O)[C@H](CCCNC(=N)N)NC(=O)[C@H](CCCNC(=N)N)NC(=O)[C@H](CCC(N)=O)NC(=O)[C@H](CO)NC(=O)[C@@H]1CCCN1C(=O)[C@@H](N)CC(C)C)C(=O)O
Stability (T1/2 (h)) (HLA-B08.01 [4]): 0.7 h
Stability (T1/2 (h)) (HLA-B07.02 [11]): 6.5 h

CC(C)[C@H](N)C(=O)N[C@H](C(=O)NCC(=O)N[C@@H](C)C(=O)N[C@@H](CS)C(=O)NCC(=O)N[C@H](C(=O)NCC(=O)N[C@@H](CCCCN)C(=O)O)C(C)C)C(C)C
Measured stability (HLA-A11.01 [1]): 10.0 h
Measured stability (HLA-A03.01 [2]): 5.0 h

CSCC[C@H](N)C(=O)N[C@@H](CC(C)C)C(=O)N[C@H](C(=O)NCC(=O)N1CCC[C@H]1C(=O)N1CCC[C@H]1C(=O)N[C@@H](C)C(=O)N[C@@H](CCCNC(=N)N)C(=O)N[C@H](C(=O)O)C(C)C)[C@@H](C)O (H-MLTGPPARV-OH; N-terminus and C-terminus assumed)
IC50 (HLA-A02.01 [5]; [12]): 10.6 nM
detected by mass spectrometry (peptide eluted from HLA-peptide complexes) [9, 13]: detected

CC(C)C[C@H](NC(=O)[C@@H]1CCCN1C(=O)[C@H](CS)NC(=O)[C@H](CC(C)C)NC(=O)[C@H](Cc1c[nH]cn1)NC(=O)[C@H](CC(N)=O)NC(=O)CNC(=O)[C@H](CC(C)C)NC(=O)[C@@H](N)CO)C(=O)O
Stability (T1/2 (h)) (HLA-A02.01 [3]): 3.5 h
Stability (T1/2 (h)) (HLA-B08.01 [4]): 0.5 h

CC(C)C[C@H](NC(=O)[C@H](CO)NC(=O)[C@H](CO)NC(=O)[C@H](CCCNC(=N)N)NC(=O)[C@H](CCC(N)=O)NC(=O)[C@H](CC(C)C)NC(=O)[C@@H](NC(=O)[C@H](C)NC(=O)[C@@H](N)Cc1ccccc1)[C@@H](C)O)C(=O)O
detected by mass spectrometry (peptide eluted from HLA-peptide complexes) ([9]; GATA3 neoORF transduced 293T cells expressing HLA-C*03:03 protein): detected

CC[C@H](C)[C@H](NC(=O)[C@H](CCCCN)NC(=O)[C@H](CO)NC(=O)[C@@H](N)CCC(=O)O)C(=O)N[C@@H](CCSC)C(=O)N[C@@H](Cc1ccccc1)C(=O)N[C@@H](C)C(=O)N[C@H](C(=O)N[C@@H](CC(C)C)C(=O)O)[C@@H](C)O
detected by mass spectrometry (peptide eluted from HLA-peptide complexes) ([9]; GATA3 neoORF transduced 293T cells expressing HLA-B*08:01 protein): detected

CC[C@H](C)[C@H](NC(=O)[C@@H](N)CCCCN)C(=O)N[C@@H](CO)C(=O)N[C@@H](CC(N)=O)C(=O)N[C@@H](Cc1c[nH]c2ccccc12)C(=O)N[C@@H](CO)C(=O)N[C@@H](CC(C)C)C(=O)N[C@@H](CCCCN)C(=O)N[C@@H](CCCCN)C(=O)O (H-KISNWSLKK-OH; N-terminus and C-terminus assumed)
IC50 (HLA-A03.01 [8]; [12]): 8.8 nM
IC50 (HLA-A11.01 [10]; [14]): 9.8 nM

CSCC[C@H](NC(=O)[C@H](C)N)C(=O)N[C@H](C(=O)N[C@H](C(=O)N[C@@H](CO)C(=O)N[C@@H](CO)C(=O)N[C@@H](CO)C(=O)N[C@@H](CCC(N)=O)C(=O)N[C@@H](CCCCN)C(=O)O)[C@@H](C)O)[C@@H](C)O (H-AMTTSSSQK-OH; N-terminus and C-terminus assumed)
IC50 (HLA-A03.01 [8]; Observed Affinity (IC50): 8.3 nM
IC50 (HLA-A11.01 [10]): 162 nM

CC(C)[C@H](N)C(=O)N[C@H](C(=O)NCC(=O)N[C@@H](C)C(=O)N[C@@H](CC(=O)O)C(=O)NCC(=O)N[C@H](C(=O)NCC(=O)N[C@@H](CCCCN)C(=O)O)C(C)C)C(C)C
Measured stability (HLA-A11.01 [1]): 3.4 h
